Assays:
human TLR4 = molecular target: T1, human TLR4 (Homo sapiens, UniProt O00206+Q9Y6Y9); assay: Human TLR4 NFκB SEAP reporter gene assay in hTLR4-transfected HEK293 cells; type: cell-based; settings: NFκB SEAP reporter, hTLR4-transfected HEK293 cells, 20 h; read-out: Human TLR4 pEC50 (converted)
T1 construct: expressed in transfected cells; host or cells: HEK293 with stably integrated pNiFty2-SEAP reporter
Description: HEK293 cells stably transfected with pNiFty2-SEAP reporter plasmid were transiently transfected with either human or mouse TLR4 (pUNO expression vector), in combination with either human or mouse CD14/MD2 (pDUO expression vector). Transient transfectants were seeded in Dulbecco’s Modified Eagle Medium, FCS 10% (v/v), 2 mM l glutamine and non-essential amino acids. Cells were seeded in tissue culture treated clear flat bottom polystyrene 96 well plates (Costar, 3598) at 1e4 cells/well. Concentration-response curves were generated by addition of test compounds and incubation for 20 h at 37°C in an atmosphere of 5% CO2. LPS (E. coli 0111:B4, Ultra-pure, Invivogen) or PHAD (Avanti Polar Lipids) was used as a positive control. The SEAP released was quantified using p nitrophenyl phosphate as a substrate, and the absorbance at 405 nm was measured at 30 second intervals over several minutes using a microplate reader. Some data are recorded as the pEC50, the negative log of the EC50 value. Other data generated from these reporter cell lines were converted to AUC (area under the curve) values by interpolation of fitted cubic spline curve between OD value and log concentration levels. The calculation is performed using MESS package in statistical software R (www.r-project.org/).

GP PBMCs = assay: Cytokine gene expression in guinea pig PBMCs (QuantiGene Plex); type: cell-based; settings: 1 and 0.2 μg/ml, 24 h, ranking among Ugi compounds
Description: Splenocytes were isolated from naïve BALB/c mice by dissociating spleens with a GentleMACS (Miltenyi) instrument, then filtration through […] screens. For other species, blood was obtained through venipuncture or cardiac puncture into heparinized tubes, then diluted 1:1 with PBS or HBSS and layered onto Ficoll-Histopaque (GE Healthcare) for blood from healthy human volunteers and cynomolgus macaques, Lympholyte-Mammal (Cedarlane Labs) for New Zealand white rabbits, Sprague-Dawley rats, Hartley guinea pigs, cotton rats, and ferrets, followed by standard density centrifugation techniques. PBMCs layers were recovered and cultured in RPMI-1640 + human AB serum (Life Technologies) + Pen Strep + L-Glutamine (human cells) or RPMI-1640 + 10% FBS (Hyclone) + Pen/Strep + L-Glutamine + 0.1% Beta-Mercapto-ethanol (Sigma) (mouse, cyno, rat, cotton rat, guinea pig, rabbit, ferret cells). Purchase of peripheral blood from cynomolgus macaques was from Valley Biosystems (West Sacramento, CA) and was performed in accordance with Standard Operating Procedures and with the approval of the Valley Biosystems Institutional Animal Care and Use Committee (IACUC). […]
PBMCs (human, cynomolgus macaque, guinea pig, ferret, rabbit, rat, and cotton rat) or splenocytes (mouse) were seeded onto 96-well flat bottom plates at 5 x 10^5 cells/well and stimulated with TLR4 agonists at 1 and 0.2 μg/ml for 24 h at 37°C. […] For human, cyno, mouse, and rat, cell-free SNs were analyzed via human, NHP, mouse, and rat MILLIPLEX kits. For GP, ferret, rabbit, and CR, cells were lysed by Millipore lysing buffer and snap frozen at -70 C until ready for analysis by Affymetrix QuantiGene 2.0 Plex kits. […] Signal was detected using a Bioplex 200 instrument (BioRad). […]
Fig 7 Activation of cytokine gene expression by Ugi compounds in GP PBMCs. […] SNs were analyzed via GP Affymetrix QuantiGene Plex assay. Data are expressed as the means of 3 GPs at the 1 μg/ml dose of TLR4 agonist and are representative of 2 studies. […]

T1 sequence (O00206 24-839): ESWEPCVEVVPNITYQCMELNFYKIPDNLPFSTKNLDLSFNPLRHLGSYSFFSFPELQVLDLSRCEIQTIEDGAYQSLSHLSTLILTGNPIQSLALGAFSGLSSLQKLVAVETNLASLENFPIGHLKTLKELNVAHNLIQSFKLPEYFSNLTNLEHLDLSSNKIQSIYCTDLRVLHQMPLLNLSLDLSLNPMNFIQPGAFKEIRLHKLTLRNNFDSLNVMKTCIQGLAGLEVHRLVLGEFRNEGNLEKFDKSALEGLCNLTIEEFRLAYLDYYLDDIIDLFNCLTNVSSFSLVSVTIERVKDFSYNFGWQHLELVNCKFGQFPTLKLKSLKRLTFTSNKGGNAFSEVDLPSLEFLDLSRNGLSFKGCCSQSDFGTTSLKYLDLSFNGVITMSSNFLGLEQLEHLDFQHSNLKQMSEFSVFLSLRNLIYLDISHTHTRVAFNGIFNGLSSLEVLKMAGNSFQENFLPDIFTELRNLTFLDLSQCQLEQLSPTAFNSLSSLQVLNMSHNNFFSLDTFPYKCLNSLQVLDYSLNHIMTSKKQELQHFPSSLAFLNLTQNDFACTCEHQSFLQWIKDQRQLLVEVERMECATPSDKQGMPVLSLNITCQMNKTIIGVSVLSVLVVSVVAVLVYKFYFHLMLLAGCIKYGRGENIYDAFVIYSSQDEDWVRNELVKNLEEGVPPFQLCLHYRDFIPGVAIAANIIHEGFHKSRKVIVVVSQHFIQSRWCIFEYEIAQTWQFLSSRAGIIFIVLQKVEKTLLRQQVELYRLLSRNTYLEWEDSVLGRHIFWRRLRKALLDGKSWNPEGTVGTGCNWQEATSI
T1 sequence (Q9Y6Y9 19-160): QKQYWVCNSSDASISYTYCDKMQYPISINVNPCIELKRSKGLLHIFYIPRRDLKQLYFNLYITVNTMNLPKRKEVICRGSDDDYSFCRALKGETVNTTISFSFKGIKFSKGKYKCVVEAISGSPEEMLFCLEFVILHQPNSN

Row | EC50 (human TLR4) [nM] | Structure (SMILES) | activity in GP PBMCs (cytokine mRNA) (GP PBMCs)
1 | 20 | Cc1ccc(N(C(=O)c2cc(-c3ccccc3)n(-c3ccccc3)n2)C(C(=O)NC2CCCC2)c2ccc(CC(=O)O)cc2)cc1Cl (stereo not shown) [AZ161] | –
2 | 5.01 | O=C(O)Cc1ccc(C(C(=O)NC2CCCC2)N(C(=O)c2cc(-c3ccccc3)n(-c3ccccc3)n2)c2ccc3c(c2)CCC3)cc1 (stereo not shown) [AZ617] | highest activity
3 | 20 | Cc1cc(C)cc(N(C(=O)c2cc(-c3ccccc3)n(-c3ccccc3)n2)C(C(=O)NC2CCCC2)c2ccc(CC(=O)O)cc2)c1 (stereo not shown) [AZ618, 2-(4-(2-(cyclopentylamino)-1-(N-(3,5-dimethylphenyl)-1,5-diphenyl-1H-pyrazole-3-carboxamido)-2-oxoethyl)phenyl)acetic acid] | highest activity
4 | 6.31 | CC(C)(C)c1ccc(N(C(=O)c2cc(-c3ccccc3)n(-c3ccccc3)n2)C(C(=O)NC2CCCC2)c2ccc(CC(=O)O)cc2)cc1 (stereo not shown) [AZ902] | lowest activity
